From patent US20240124417A1, “COMPOUNDS USEFUL AS IMMUNOMODULATORS” (Bristol-Myers Squibb Company, priority 2019, published 2024)

Target: T1, PD-1/PD-L1 (Homo sapiens, UniProt Q9NZQ7)
T1 construct: TVMV protease site linker (C); made in house; host or cells: HEK293T cells
Assay: PD-1/PD-L1 Homogenous Time-Resolved Fluorescence (HTRF) binding assay
Conditions: PD-L1-His 10 nM, PD-1-Ig 20 nM
Method in brief: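 Time-resolved FRET read-out using Eu-cryptate anti-Ig (1 nM final) and APC anti-His (20 nM final). Tagged extracellular domains were used in BSA/Tween-20-supplemented dPBS, with compound pre-incubated 15 min with PD-L1-His (10 nM) before PD-1-Ig (20 nM) was added for 15 min. Other human pairs: PD-L2-His 5 nM with PD-1-Ig 20 nM; PD-L1-Ig 10 nM with CD80-His 100 nM.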

T1 sequence (Q9NZQ7 18-239): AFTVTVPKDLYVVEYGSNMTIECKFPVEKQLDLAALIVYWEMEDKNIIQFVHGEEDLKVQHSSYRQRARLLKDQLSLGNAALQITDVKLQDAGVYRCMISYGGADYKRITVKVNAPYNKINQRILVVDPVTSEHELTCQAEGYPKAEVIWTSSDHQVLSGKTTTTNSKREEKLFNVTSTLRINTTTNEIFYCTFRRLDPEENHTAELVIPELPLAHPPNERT

SMILES	IC50 [nM]
Cc1c(COc2cc(OCc3cncc(C#N)c3)c(CNCc3ccnn3C)cc2Cl)cccc1-c1cccc(OCCCN2CC[C@@H](O)C2)c1C [Example 2556, (R)-5-((4-chloro-5-((3′-(3-(3-hydroxypyrrolidin-1-yl)propoxy)-2,2′-dimethyl-[1,1′-biphenyl]-3-yl)methoxy)-2-((((1-methyl-1H-pyrazol-5-yl)methyl)amino)methyl)phenoxy)methyl)nicotinonitrile]	0.8
Cc1c(COc2cc(OCc3cncc(C#N)c3)c(CN(C)Cc3cnccn3)cc2Cl)cccc1-c1cccc(OCCCN2CC[C@@H](O)C2)c1C [Example 2030, (R)-5-((4-chloro-5-((3′-(3-(3-hydroxypyrrolidin-1-yl)propoxy)-2,2′-dimethyl-[1,1′-biphenyl]-3-yl)methoxy)-2-((methyl(pyrazin-2-ylmethyl)amino)methyl)phenoxy)methyl)nicotinonitrile]	1.1
Cc1c(COc2cc(OCc3cncc(C#N)c3)c(CNCc3cccnn3)cc2Cl)cccc1-c1cccc(OCCCN2CC[C@@H](O)C2)c1C [Example 2021, (R)-5-((4-chloro-5-((3′-(3-(3-hydroxypyrrolidin-1-yl)propoxy)-2,2′-dimethyl-[1,1′-biphenyl]-3-yl)methoxy)-2-(((pyridazin-3-ylmethyl)amino)methyl)phenoxy)methyl)nicotinonitrile]	6
Cc1c(COc2cc(OCc3cncc(C#N)c3)c(CN3CCC(c4cc[nH]n4)C3)cc2Cl)cccc1-c1cccc(OCC2CCCN(C)C2)c1Cl (stereo not drawn) [Example 2608, 5-((2-((3-(1H-pyrazol-3-yl)pyrrolidin-1-yl)methyl)-4-chloro-5-((2′-chloro-2-methyl-3′-((1-methylpiperidin-3-yl)methoxy)-[1,1′-biphenyl]-3-yl)methoxy)phenoxy)methyl)nicotinonitrile]	2.3
Cc1c(COc2cc(OCc3cncc(C#N)c3)c(CNC3(c4ncon4)CC(OCc4ccccc4)C3)cc2Cl)cccc1-c1cccc(OCC2CCCN(C)C2)c1Cl (stereo not drawn) [Example 2625, 5-((2-(((3-(benzyloxy)-1-(1,2,4-oxadiazol-3-yl)cyclobutyl)amino)methyl)-4-chloro-5-((2′-chloro-2-methyl-3′-((1-methylpiperidin-3-yl)methoxy)-[1,1′-biphenyl]-3-yl)methoxy)phenoxy)methyl)nicotinonitrile]	35.3
Cc1c(COc2cc(OCc3cncc(C#N)c3)c(CN3CCCCC3c3cn[nH]c3)cc2Cl)cccc1-c1cccc(OCCCNC[C@H](O)CO)c1Cl (stereo partly drawn) [Example 1032, 5-((2-((2-(1H-Pyrazol-4-yl)piperidin-1-yl)methyl)-4-chloro-5-((2′-chloro-3′-(3-(((S)-2,3-dihydroxypropyl)amino)propoxy)-2-methyl-[1,1′-biphenyl]-3-yl)methoxy)phenoxy)-methyl)nicotinonitrile]	0.8
Cc1c(COc2cc(OCc3cncc(C#N)c3)c(CNCc3nc4ccccc4[nH]3)cc2Cl)cccc1-c1cccc(OCC2CCCN(C)C2)c1Cl (stereo not drawn) [Example 2616, 5-((2-((((1H-benzo[d]imidazol-2-yl)methyl)amino)methyl)-4-chloro-5-((2′-chloro-2-methyl-3′-((1-methylpiperidin-3-yl)methoxy)-[1,1′-biphenyl]-3-yl)methoxy)phenoxy)methyl)nicotinonitrile]	1.9
CC(=O)NC1CCN(CCCOc2cccc(-c3cccc(COc4cc(OCc5cncc(C#N)c5)c(CNCCc5nnnn5C)cc4Cl)c3C)c2C)CC1 [Example 1049, N-(1-(3-((3′-((2-Chloro-5-((5-cyanopyridin-3-yl)methoxy)-4-(((2-(1-methyl-1H-tetrazol-5-yl)ethyl)amino)methyl)phenoxy)methyl)-2,2′-dimethyl-[1,1′-biphenyl]-3-yl)oxy)-propyl)piperidin-4-yl)acetamide]	2.5
Cc1nc2ccc(CNCc3cc(Cl)c(OCc4cccc(-c5cccc(OCC6CCCN(C)C6)c5Cl)c4C)cc3OCc3cncc(C#N)c3)cc2[nH]1 (stereo not drawn) [Example 2609, 5-((4-chloro-5-((2′-chloro-2-methyl-3′-((1-methylpiperidin-3-yl)methoxy)-[1,1′-biphenyl]-3-yl)methoxy)-2-((((2-methyl-1H-benzo[d]imidazol-6-yl)methyl)amino)methyl)phenoxy)methyl)nicotinonitrile]	1.1
Cc1c(COc2cc(OCc3cncc(C#N)c3)c(CN(C)Cc3ccnn3C)cc2Cl)cccc1-c1cccc(OCCCN2CC[C@@H](O)C2)c1C [Example 2559, (R)-5-((4-chloro-5-((3′-(3-(3-hydroxypyrrolidin-1-yl)propoxy)-2,2′-dimethyl-[1,1′-biphenyl]-3-yl)methoxy)-2-((methyl((1-methyl-1H-pyrazol-5-yl)methyl)amino)methyl)phenoxy)methyl)nicotinonitrile]	4.1
Cc1c(COc2cc(OCc3cncc(C#N)c3)c(CNCc3ccnc(C#N)n3)cc2Cl)cccc1-c1cccc(OCCCN2CC[C@@H](O)C2)c1C [Example 2040, (R)-4-(((5-chloro-2-((5-cyanopyridin-3-yl)methoxy)-4-((3′-(3-(3-hydroxypyrrolidin-1-yl)propoxy)-2,2′-dimethyl-[1,1′-biphenyl]-3-yl)methoxy)benzyl)amino)methyl)pyrimidine-2-carbonitrile]	8.2
Cc1c(COc2cc(OCc3cncc(C#N)c3)c(CNC(C(=O)O)c3cnn(C)c3)cc2Cl)cccc1-c1cccc(OCC2CCCN(C)C2)c1Cl (stereo not drawn) [Example 1028, 2-((5-Chloro-4-((2′-chloro-2-methyl-3′-((1-methylpiperidin-3-yl)methoxy)-[1,1′-biphenyl]-3-yl)methoxy)-2-((5-cyanopyridin-3-yl)methoxy)benzyl)amino)-2-(1-methyl-1H-pyrazol-4-yl)acetic acid]	1.9
Cc1c(COc2cc(OCc3cncc(C#N)c3)c(CNCCc3nc4ccccc4[nH]3)cc2Cl)cccc1-c1cccc(OCC2CCCN(C)C2)c1Cl (stereo not drawn) [Example 2593, 5-((2-(((2-(1H-benzo[d]imidazol-2-yl)ethyl)amino)methyl)-4-chloro-5-((2′-chloro-2-methyl-3′-((1-methylpiperidin-3-yl)methoxy)-[1,1′-biphenyl]-3-yl)methoxy)phenoxy)methyl)nicotinonitrile]	3
Cc1c(COc2cc(OCc3cncc(C#N)c3)c(CN(C)Cc3nc4ccccc4n3Cc3ccccc3)cc2Cl)cccc1-c1cccc(OCCCN2CC[C@@H](O)C2)c1C [Example 2561, (R)-5-((2-((((1-benzyl-1H-benzo[d]imidazol-2-yl)methyl)(methyl)amino)methyl)-4-chloro-5-((3′-(3-(3-hydroxypyrrolidin-1-yl)propoxy)-2,2′-dimethyl-[1,1′-biphenyl]-3-yl)methoxy)phenoxy)methyl)nicotinonitrile]	746
CC(=O)NC1CCN(CCCOc2cccc(-c3cccc(COc4cc(OCc5cncc(C#N)c5)c(CN(C)CCc5nn[nH]n5)cc4Cl)c3C)c2C)CC1 [Example 1037, N-(1-(3-((3′-((4-(((2-(2H-Tetrazol-5-yl)ethyl)(methyl)amino)methyl)-2-chloro-5-((5-cyanopyridin-3-yl)methoxy)phenoxy)methyl)-2,2′-dimethyl-[1,1′-biphenyl]-3-yl)oxy)-propyl)piperidin-4-yl)acetamide]	2.8
Cc1c(COc2cc(OCc3cncc(C#N)c3)c(CNCc3cc[nH]n3)cc2Cl)cccc1-c1cccc(OCC2CCCN(C)C2)c1Cl (stereo not drawn) [Example 2588, 5-((2-((((1H-pyrazol-3-yl)methyl)amino)methyl)-4-chloro-5-((2′-chloro-2-methyl-3′-((1-methylpiperidin-3-yl)methoxy)-[1,1′-biphenyl]-3-yl)methoxy)phenoxy)methyl)nicotinonitrile]	2
Cc1c(COc2cc(OCc3cncc(C#N)c3)c(CNCc3cc(C4CC4)on3)cc2Cl)cccc1-c1cccc(OCC2CCCN(C)C2)c1Cl (stereo not drawn) [Example 2607, 5-((4-chloro-5-((2′-chloro-2-methyl-3′-((1-methylpiperidin-3-yl)methoxy)-[1,1′-biphenyl]-3-yl)methoxy)-2-((((5-cyclopropylisoxazol-3-yl)methyl)amino)methyl)phenoxy)methyl)nicotinonitrile]	4.2
Cc1c(COc2cc(OCc3cncc(C#N)c3)c(CN(C)CCc3cscn3)cc2Cl)cccc1-c1cccc(OCCCN2CC[C@@H](O)C2)c1C [Example 2507, (R)-5-((4-chloro-5-((3′-(3-(3-hydroxypyrrolidin-1-yl)propoxy)-2,2′-dimethyl-[1,1′-biphenyl]-3-yl)methoxy)-2-((methyl(2-(thiazol-4-yl)ethyl)amino)methyl)phenoxy)methyl)nicotinonitrile]	1.7
Cc1c(COc2cc(OCc3cncc(C#N)c3)c(CNCc3cncs3)cc2Cl)cccc1-c1cccc(OCCCN2CC[C@@H](O)C2)c1C [Example 2531, (R)-5-((4-chloro-5-((3′-(3-(3-hydroxypyrrolidin-1-yl)propoxy)-2,2′-dimethyl-[1,1′-biphenyl]-3-yl)methoxy)-2-(((thiazol-5-ylmethyl)amino)methyl)phenoxy)methyl)nicotinonitrile]	3.4
COc1cc(OCc2cccc(-c3cccc(OCC4CCCN(C)C4)c3Cl)c2C)c(Cl)cc1CNCc1ncc[nH]1 (stereo not drawn) [Example 2057, N-((1H-imidazol-2-yl)methyl)-1-(5-chloro-4-((2′-chloro-2-methyl-3′-((1-methylpiperidin-3-yl)methoxy)-[1,1′-biphenyl]-3-yl)methoxy)-2-methoxyphenyl)methanamine]	6.3
Cc1c(COc2cc(OCc3cncc(C#N)c3)c(CN(C)Cc3cnco3)cc2Cl)cccc1-c1cccc(OCCCN2CC[C@@H](O)C2)c1C [Example 2551, (R)-5-((4-chloro-5-((3′-(3-(3-hydroxypyrrolidin-1-yl)propoxy)-2,2′-dimethyl-[1,1′-biphenyl]-3-yl)methoxy)-2-((methyl(oxazol-5-ylmethyl)amino)methyl)phenoxy)methyl)nicotinonitrile]	2.7
